The text below walks through data of paper PMC7808747, “Design, synthesis, and in vitro evaluation of BP-1-102 analogs with modified hydrophobic fragments for STAT3 inhibition” (Journal of Enzyme Inhibition and Medicinal Chemistry, 2021).

In data set [1] the test system is RPE-1. Briefly: Resazurin assay, RPE-1 (Table 2). In kind it is cell-based. Conditions: Homo sapiens, resazurin assay (footnote a), read-out: IC50±SD RPE-1. On the technique in general: Resazurin is reduced to fluorescent resorufin, in cell work by metabolically active cells.
Protocol: The resazurin reduction assay[34] was performed as described previously[38]. Briefly, cells were seeded onto a 96-well plate (2000 cells per well) in hexaplicate and the following day treated with the tested compounds (dissolved in DMSO as 50 mM stock) in a concentration range as indicated. After 24 h, 200 μl of culture medium of each well was exchanged for 100 μl of resazurin (stock 30 mg/ml; Sigma, St. Louis, MO) diluted 10 times in the culture medium, and the cells were incubated at 37 °C for 1–3 h. Reading of fluorescence was done using an Envision reader (PerkinElmer, Waltham, MA). Absolute values of fluorescence were related to the values of control/untreated cells. To estimate the cytotoxic concentration (half maximal inhibitory concentration, IC50), log-scale data were processed in GraphPad Prism software (La Jolla, CA) using nonlinear fit curve.
Data set [2] concerns cervix carcinoma HeLa. Briefly: Resazurin cytotoxicity assay, HeLa. Conditions: 0–50 µM, 24 h. How it is done:
(§1) Furthermore, the cytotoxicity of compound 6 was compared to BP-1-102 (1) in human glioblastoma cell lines U-87 and T98 in concentration range 0–80 µM for 24 h using the crystal violet assay.
(§2) The resazurin reduction assay[34] was performed as described previously. Briefly, cells were seeded onto a 96-well plate (2000 cells per well) in hexaplicate and the following day treated with the tested compounds (dissolved in DMSO as 50 mM stock) in a concentration range as indicated. After 24 h, 200 μl of culture medium of each well was exchanged for 100 μl of resazurin (stock 30 mg/ml; Sigma, St. Louis, MO) diluted 10 times in the culture medium, and the cells were incubated at 37 °C for 1–3 h. Reading of fluorescence was done using an Envision reader (PerkinElmer, Waltham, MA). Absolute values of fluorescence were related to the values of control/untreated cells. To estimate the cytotoxic concentration (half maximal inhibitory concentration, IC50), log-scale data were processed in GraphPad Prism software (La Jolla, CA) using nonlinear fit curve.

Data set [3] relates to human breast adenocarcinoma MCF-7. Briefly: Resazurin cytotoxicity assay, MCF-7. The protocol:
as §1, §2

In data set [4] the test system is TC-1 cells. Briefly: Annexin V / propidium iodide FACS, TC-1. Conditions: TC-1, 24 h.
Protocol: (§6) Cells were harvested by centrifugation, resuspended in cold PBS and again centrifuged. Cell pellets were then resuspended in Annexin V Binding Buffer (ApoFlowEx FITC Kit, ED7044, Exbio, Vestec, Czech Republic), annexin V-APC and PI were added to the cell pellet and mixed. Cells were incubated in the dark at room temperature for 15 min. After the incubation, cells were centrifuged, resuspended in Annexin V Binding Buffer and analysed by flow cytometry. Five thousand cells per sample were measured by analysing annexin V and PI using a BD FACSVerse™ flow cytometer (BD Biosciences, Franklin Lakes, NJ). Data were analysed using FlowJo 10 software (FlowJo LLC, Ashland, OR), and the percentage of viable (annexin V-negative/PI-negative) cells relative to control was plotted.
In data set [5] the test system is MDA-MB-231 cells. Briefly: Annexin V / propidium iodide FACS, MDA-MB-231. In kind it is cell-based, human. The note with it: MDA-MB-231, 0, 5, 10, 20, 50 µM, 24 h.
Protocol: as §6
The test system of data set [6] is human glioblastoma U373. Briefly: Crystal violet assay, U373. The note with it: 0–50 µM, 24 h. How it is done:
(§3) The cells were treated with the compounds at concentrations 0, 5, 10, 20, and 50 µM for 24 h, and the cytotoxicity was estimated by the resazurin assay.
(§4) To determine cell viability by crystal violet assay, cells were seeded in 96-well plates at densities of 3000 (RPE-1), 5000 (U373 and T98-G), and 8000 (U-87 MG) cells per well. The next day the cells were treated with the tested compounds in triplicate in a concentration range as indicated. After 24 h, the cells in each well were washed twice with 150 µl PBS and then stained in 30 µl 0.5% w/v crystal violet in 20% methanol for 15 min. Plates were washed three times with double distilled H2O and left to dry overnight. Crystal violet was solubilised with 75 µl 0.2% Triton X-100 (Sigma, St. Louis, MO) in PBS for 15 min. Absorbance of crystal violet was measured at 595 nm using a microplate reader (Multiskan EX, Thermo Electron Corporation, Waltham, MA). Absorbance of the treated samples was expressed as a percentage of absorbance of untreated cells.

The test system of data set [7] is STAT3 Y705 phosphorylation (pY705). Put plainly: STAT3 pY705 immunoblotting, MDA-MB-231. Conditions: MDA-MB-231, micromolar concentration range, 4 h. In kind it is cell-based, human. The protocol: The cells were exposed to BP-1-102 (1), compounds 6 and 14 in a micromolar concentration range for 4 h, and then the levels of STAT3 pY705 and total STAT3 were probed by immunoblotting with specific antibodies. […] It can be concluded that both novel compounds 6 and 14 manifested inhibitory effects on receptor-mediated phosphorylation of Y705 of STAT3 in both human and mouse cell lines.
Cells were washed three times with PBS, harvested into 95 °C-heated Laemmli SDS sample lysis buffer (2% SDS, 50 mM Tris–Cl, 10% glycerol in double distilled H2O) and sonicated at 3 μm amplitude for 3 × 10 or 3 × 30 s with 10 or 30 s cooling intervals in a Soniprep 150 (MSE, London, UK) or Diagenode Bioruptor 300 (Diagenode, Liege, Belgium) for human and murine cell lines, respectively. Concentration of proteins was estimated by the Pierce^TM BCA Protein Assay (Thermo Scientific, Waltham, MA). DTT (100 mM) and 0.01% bromophenol blue were added to the lysates before separation by SDS-PAGE (10% gels were used). Equal protein amounts (40 or 35 μg for human or murine cell lines, respectively) were loaded into each well. Proteins were electrotransferred onto a nitrocellulose membrane (Amersham^TM Protran^TM 0.45 µm NC, GE Healthcare, Chalfont St Giles, UK) using wet transfer and detected by specific antibodies (at 4 °C overnight) combined with HRP-conjugated secondary antibodies. Peroxidase activity was detected by Amersham^TM ECL Western Blotting Detection Reagents (GE Healthcare, Chalfont St Giles, UK). GAPDH was used as a loading control.
Background: In western blotting, separated proteins are transferred to a membrane and probed.

Data set [8] concerns human immortalised retinal pigment epithelium RPE-1. Put plainly: Crystal violet assay, RPE-1. The note with it: 0–50 µM, 24 h. The protocol: as §3, §4
Data set [9] has as its system mouse prostate TRAMP-C2 cancer cell line. Briefly: MTT cytotoxicity assay, TRAMP-C2. In kind it is cell-based. The note with it: MTT assay; for cytotoxic effect in TRAMP-C2 (in words): 0–50 µM, 24 h. The protocol:
(§5) Cells were seeded at the density of 2000 cells per well (96-well F microplates; Nunc, Roskilde, Denmark). The following day, the tested compounds were added. In the next 24 h, MTT (3-(4,5-dimethylthiazol-2-yl)-2,5-diphenyltetrazolium bromide) was added. After 6 h, DMF (dimethylformamide) was added, and after additional 24 h, absorbance was measured at 560 nm by a microplate reader.
A general note: Tetrazolium assays rely on reduction of a dye to a coloured formazan, in cell work by metabolically active cells.

Data set [10] has as its system osteosarcoma U2-OS. Put plainly: Resazurin cytotoxicity assay, U2-OS. Conditions: 0–50 µM, 24 h. The protocol:
as §1, §2

The test system of data set [11] is prostate carcinoma DU-145. Put plainly: Resazurin cytotoxicity assay, DU-145. The protocol: as §1, §2
In data set [12] the test system is TRAMP-C2 cells. Briefly: Annexin V / propidium iodide FACS, TRAMP-C2. Conditions: TRAMP-C2, 24 h. In kind it is cell-based, mouse.
Protocol: as §6
Data set [13] relates to human breast cancer MDA-MB-231 cell line. Put plainly: Resazurin cytotoxicity assay, MDA-MB-231. In kind it is cell-based. Conditions: resazurin assay; for cytotoxic effect in MDA-MB-231 (in words): 0, 5, 10, 20, 50 µM. The protocol: as §3
To estimate IC50 of 6 and 14, MDA-MB-231 cells were treated with 1 (0, 2, 5, 10, 15, 20, 25, 30, 40, and 50 µM), 6 (0, 5, 10, 20, 25, 30, 40, 50, 70, and 100 µM), and 14 (0, 20, 40, 50, 60, 70, 80, 100, 150, and 200 µM) for 24 h.
as §2

Data set [14] has as its system mouse lung TC-1 cancer cell line. Briefly: MTT cytotoxicity assay, TC-1. In kind it is cell-based. Conditions: for cytotoxic effect in TC-1 (in words): 0–50 µM, 24 h. How it is done: as §5
Data set [15] deals with human breast cancer MDA-MB-231. The arrangement: method as in PMID 20067773. The note with it: previously published; cited from earlier work.
Data set [16] concerns pancreatic cancer Panc-1 cell lines. Details: method as in PMID 20067773. Conditions: previously published; cited from earlier work.

As a reminder, the IC50 is the concentration at which inhibition is half-maximal. For `CN(CC(=O)N(Cc1ccc(C(F)(F)F)cc1)c1ccc(C(=O)O)c(O)c1)S(=O)(=O)c1c(F)c(F)c(F)c(F)c1F` [Compound 14, 4-(N-(4-Trifluoromethylbenzyl)-2-(2,3,4,5,6-pentafluoro-N-methylphenylsulfonamido)acetamido)-2-hydroxybenzoic acid], the half-inhibitory concentration (IC50) in data set [1] is 39.7 ± 7.4 µM; in data set [3] (Homo sapiens, MCF7, read-out: IC50±SD MCF-7), 47.3 ± 3.8 µM; in data set [9] (Mus musculus, read-out: IC50±SD TRAMP-C2), 23.1 ± 10.5 µM; in data set [11] (Homo sapiens, DU-145, read-out: IC50±SD DU-145), 65.3 ± 7.8 µM; in data set [13] (Homo sapiens, MDA-MB-231, 24 h, 24 h, read-out: IC50±SD MDA-MB-231), 39.3 ± 6.3 µM; in data set [14] (Mus musculus, read-out: IC50±SD TC-1) it was 25.3 ± 6.6 µM. In addition, in data set [2], the “cytotoxic effect in HeLa (in words)” value was “comparable to BP-1-102 (1) and compound 6 at 50 µM, it was markedly decreased at lower concentrations”. Moreover, the “cytotoxic effect in MCF-7 (in words)” value in data set [3] (0–50 µM, 24 h, resazurin assay) is “comparable to BP-1-102 (1) and compound 6 at 50 µM, it was markedly decreased at lower concentrations”. Besides, the “cytotoxicity by annexin V/PI staining and FACS” value in data set [4] and in data set [12] was “confirmed” in each case. Moreover, in data set [5], the “cell death induction (annexin V/PI, FACS)” value is on record as “cell death induction was confirmed”. For the same compound, in [6], the “cytotoxic activity in U373 (in words)” value was “concentration-dependent cytotoxic activity”. In data set [7], the “inhibition of constitutive STAT3 Y705 phosphorylation” value is “inhibited constitutive STAT3 phosphorylation”. Besides, in data set [8], the “cytotoxic activity in RPE-1 (in words)” value is reported as “concentration-dependent cytotoxic activity”. Also, the “cytotoxic effect in TRAMP-C2 (in words)” value in data set [9] was “cytotoxic activity comparable to BP-1-102 (1)”. Further, in data set [10], the “cytotoxic effect in U2-OS (in words)” value was “comparable to BP-1-102 (1) and compound 6 at 50 µM, it was markedly decreased at lower concentrations”. Besides, the “cytotoxic effect in DU-145 (in words)” value in data set [11] (0–50 µM, 24 h, resazurin assay) is on record as “weaker response”. The “concentration from which the compound was cytotoxic” value in data set [13] (MDA-MB-231, 24 h) is given as 20 µM. Besides, the “cytotoxic effect in TC-1 (in words)” value in data set [14] is “cytotoxic activity comparable to BP-1-102 (1)”.
As to `Cc1ccc(S(=O)(=O)N(C)CC(=O)N(Cc2ccc(C3CCCCC3)cc2)c2ccc(C(=O)O)c(O)c2)cc1` [S3I-201.1066 (2), 4-(N-(4-Cyclohexylbenzyl)-2-(N-methyl-N-(p-toluenesulfonyl))acetamido)-2-hydroxybenzoic acid, reference compound], the “effect on viability of MDA-MB-231” value in data set [15] was “reported to affect viability”. For the same compound, the “effect on viability of Panc-1” value in [16] was “reported to affect viability”. Moreover, the “cytotoxic effect in TRAMP-C2 (in words)” value in data set [9] is “did not demonstrate any cytotoxic effect”. Also, the “cytotoxic effect in MDA-MB-231 (in words)” value is on record as “did not show any observable cytotoxic effect” in data set [13] (24 h) and “complete loss of cytotoxic activity” in data set [13] (24 h, listed as 2). The “cytotoxic effect in TC-1 (in words)” value in data set [14] was “did not demonstrate any cytotoxic effect”.
